Results from the supplement of paper PMC10307832.

Legend:
Experiment in all cases: relative viability (nuclei count vs DMSO), 5 days (fraction); higher = more cells survive
[1] = compound: COc1cccc2cc(-c3nc([C@H]4CC[C@H](C(=O)O)CC4)n4ncnc(N)c34)[nH]c12 [OSI-027] + Nc1ncn([C@H]2C[C@H](O)[C@@H](CO)O2)c(=O)n1 [Decitabine] (partner 2 µM)
How it was run: (§1)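 One day after seeding in 1536-well plates, lung cancer cell lines were dosed by pin tool. Dosing was either single-drug or a fixed anchor-drug dose plus five library-drug doses (not always all listed) in √10 steps. After 5 days, nuclei were stained in one fix-and-stain step and counted on 4× images, and relative viability is the nuclei count of treated wells over that of vehicle wells, given as the median of duplicate plates.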

[2] = compound: CCCS(=O)(=O)Nc1ccc(F)c(C(=O)c2c[nH]c3ncc(-c4ccc(Cl)cc4)cc23)c1F [Vemurafenib] + Nc1nc2[nH]cc(CCc3ccc(C(=O)N[C@@H](CCC(=O)O)C(=O)O)cc3)c2c(=O)[nH]1 [Pemetrexed] (partner 0.2 µM)
How it was run: as §1

[3] = compound: COc1cccc2cc(-c3nc([C@H]4CC[C@H](C(=O)O)CC4)n4ncnc(N)c34)[nH]c12 [OSI-027] + Cc1nc(NC(=O)N2CCC[C@H]2C(N)=O)sc1-c1ccnc(C(C)(C)C(F)(F)F)c1 [Alpelisib] (partner 2 µM)
How it was run: as §1

[4] = compound: Cc1nc(NC(=O)N2CCC[C@H]2C(N)=O)sc1-c1ccnc(C(C)(C)C(F)(F)F)c1 [Alpelisib] + NC(=O)Nc1cc(-c2cccc(F)c2)sc1C(=O)N[C@H]1CCCNC1 [AZD7762] (partner 0.2 µM)
How it was run: as §1

Cell Line	relative viability ([1]; first compound 0.01 µM)	relative viability ([1]; first compound 0.03162 µM)	relative viability ([1]; first compound 0.1 µM)	relative viability ([1]; first compound 0.3162 µM)	relative viability ([1]; first compound 1 µM)	relative viability ([2]; first compound 0.03162 µM)	relative viability ([2]; first compound 0.1 µM)	relative viability ([2]; first compound 0.3162 µM)	relative viability ([2]; first compound 1 µM)	relative viability ([3]; first compound 0.01 µM)	relative viability ([3]; first compound 0.03162 µM)	relative viability ([3]; first compound 0.1 µM)	relative viability ([3]; first compound 0.3162 µM)	relative viability ([3]; first compound 1 µM)	relative viability ([4]; first compound 0.04 µM)	relative viability ([4]; first compound 0.1265 µM)	relative viability ([4]; first compound 0.4 µM)	relative viability ([4]; first compound 1.265 µM)	relative viability ([4]; first compound 4 µM)
NCI-H520	0.583	0.482	0.47	0.363	0.228	0.689	0.643	0.532	0.608	1.11	0.833	0.701	0.41	0.205	–	–	–	–	–
COR-L23	0.482	0.474	0.379	0.372	0.236	0.195	0.198	0.186	0.181	0.876	0.784	0.696	0.486	0.273	–	–	–	–	–
A549	0.301	0.256	0.272	0.319	0.102	–	–	–	–	0.718	0.612	0.727	0.361	0.131	–	–	–	–	–
SW 1573	0.411	0.535	0.438	0.388	0.284	0.872	0.777	0.798	0.832	0.738	0.76	0.661	0.669	0.39	–	–	–	–	–
EBC-1	–	–	–	–	–	–	–	–	–	0.79	0.909	0.823	0.478	0.343	–	–	–	–	–
ABC-1	1.03	1.33	1.16	1.05	0.762	–	–	–	–	0.98	0.921	0.903	0.628	0.537	0.996	0.875	1.2	0.598	0.69
